Patent EP1613294B1, “PEPTIDES AND DERIVATIVES THEREOF AS INHIBITORS OF OXIDATIVE DAMAGE OF THE SKIN” (Bottega Verde S.r.l., priority 2003, dated 2004)
Peptide text beside a SMILES is read from it.

Legend:
[1] = HNE quenching activity in homogeneous phase (HNE consumption by HPLC); assay type: biochemical; conditions: 200 µM HNE, 37°C, average ± S.D of 4 determinations; for RESIDUAL HNE (%) 1 hr of incubation: phosphate buffer 10 mM pH 7.4, 1 hr; for RESIDUAL HNE (%) 24 hrs of incubation: phosphate buffer 10 mM pH 7.4, 24 hrs
Source text: 4-hydroxy-trans-nonenal (HNE) was used throughout the study, as the prototype of α,β-unsaturated aldehydes since it represents the main oxidative degradation product of ω-6 polyunsaturated fatty acids, such as arachidonic and linoleic acids, and it is formed in large amount in the skin under different patho-physiological conditions, such as intrinsic and photo-induced skin aging [Tanaka N, Arch Dermatol Res, 293, 363-367, 2001].
A homogeneous phase model was first used to evaluate the ability of H-His-Tyr-OH and H-Tyr-His-OH to react and deactivate the cytotoxic agent HNE (quenching activity). In particular, the di-peptides were incubated at 37°C in a phosphate buffer, 10 mM pH 7.4, in the presence of 200 µM HNE. HNE consumption was determined after 1 hour and 24 hours of incubation by HPLC analysis, under the following experimental conditions: HP1050 (Hewlett Packard, Milano, Italy) equipped with a quaternary pump, self-sampling, on-line degasser, UV/VIS photodiode detector. The separations were performed by means of a Supelco LC18 column (25 cm x 4.6 mm i.d.; particle size 5 µm) and an isocratic elution system: 60% of phase A (H2O/CH3CN/HCOOH 90/1.0/0.] v/v/v) and 40% of phase B (H2O/CH3CN 10/90 v/v/v).
The values are expressed as the average ± S.D of 4 determinations.

[2] = Antioxidant activity, fluorimetric assay of R-Phicoerytrine (RPE) oxidation by AAPH-generated peroxyl radicals; assay type: biochemical; conditions: substance at 25 µM; average ± S.D of 4 determination
Experimental: The amount of RPE oxidation is determined by fluorimetric analysis and the results are expressed as Trolox equivalents (reference compound).
(the hydrophilic analogue of vitamin E).
The values are the average ± S.D of 4 determination

[3] = tested on: human kcratinocytcs cell line (NCTC 2544 human cell line); experiment: Antioxidant cell protection of keratinocytes against AAPH-induced oxidative damage (MTT, morphology, lipid peroxidation with BODIPY 581/591); assay type: cell-based; conditions: 6 hours exposure to 40 mM AAPH
Experimental: The H-His-Tyr-OH and H-Tyr-His-OH antioxidant activity was subsequently devaluated in a cellular model using human kcratinocytcs cell line (NCTC 2544 human cell line, Flow Laboratories, Irvine, UK), subjected to oxidative damage induced by a flux of peroxyl radicals generated by the radical initiator 2,2'-azobis([…]) dihydrochloride (AAPH). The following parameters were evaluated as markers of cellular damage: mitochondrial functionality as an index of cell viability (MTT assay), cellular morphology (phase contrast microscopic examinations), and lipid peroxidation, using 4,4-difluoro-5-(4-phenyl-1,3-butadienyl)-4-bora-3a,4a-diazo-s-indacene-3-undecanoic acid(BODIPY 581/591) as membrane fluorescent probe [Pap et al, FEBS Lett. 453:278-282, 1999]. A dramatic cytotoxic effect was observed after 6 hours exposure to 40 mM AAPH(fig.5).
The addition of H-His-Tyr-OH to the incubation medium causes a significant and dose-dependent cell protection, which is significant for all the parameters considered, already at 0.5 mM, with a total protection at 10 mM (fig. 5).

[4] = Copper (II) chelation by spectrophotometric analysis; assay type: physicochemical; conditions: phosphate buffer (1 mM), 37°C, 1 mM copper sulphate (1:1 molar ratio); free copper (II) band at 800 nm disappears
Experimental: For this purpose, first we evaluated the ability of H-His-Tyr-OH and H-Tyr-His-OH to chelate copper (II) by spectro-photometric analysis. The peptides are dissolved in phosphate buffer (1 mM) and incubated at 37°C with 1 mM copper sulphate (1:1 molar ratio).

[5] = tested on: keratinocytes (NCTC 2544 human cell line); experiment: Cytoprotection of keratinocytes exposed to UVB and HNE (morphology, cell viability by calcein assay); assay type: cell-based; conditions: for protective effect (morphological analyses and recovery in cell viability): added to incubation medium concomitant to HNE and UVB exposure, result in words
Experimental: The experimental model involves the exposure of the cellular mono-layer to the minimal UVB erythematal dose, MED=50 mJ/cm^2, (Vilber Lourmat VLX-3W radiometer equipped with a UVB probe at 312 nm)and, 4 hours of post-incubation, to the HNE insult (70 nmoles/mg protein).
The combination of physical (UVB) and chemical (HNE) stress is used to simulate the conditions of cellular damage of the skin during the cutaneous intrinsic and photo-induced aging process.

| Compound | RESIDUAL HNE (%) 1 hr of incubation [1] [%] | RESIDUAL HNE (%) 24 hrs of incubation [1] [%] | TROLOX equivalent [2] [µM] | minimal effective concentration ([3]; mitochondrial functionality, morphology, lipid peroxidation, read-out: concentration at which cell protection is already significant for all the parameters considered) [µM] | EC100 ([3]; read-out: concentration giving total protection) [µM] | λmax of the absorption band of the peptide-copper(II) complex [4] [nm] | EC100 ([5]; Homo sapiens, NCTC-2544, light or radiation study, UVB 50 mJ/cm^2 + HNE 70 nmoles/mg protein, determined 6 hours after the addition of HNE, read-out: concentration at which cells are completely protected (morphological analysis)) [µM] | minimal effective concentration ([5]; Homo sapiens, NCTC-2544, light or radiation study, UVB 50 mJ/cm^2 + HNE 70 nmoles/mg protein, determined 6 hours after the addition of HNE, read-out: concentration at which the cytoprotective activity is already significant) [µM] | protective effect (morphological analyses and recovery in cell viability) [5] |
| --- | --- | --- | --- | --- | --- | --- | --- | --- | --- |
| N=C(N)NN [Amino guanidine, reference compound] | 95.31 ± 0.08 | 72.04 ± 3.97 | – | – | – | – | – | – | – |
| NCCC(=O)N[C@@H](Cc1cnc[nH]1)C(=O)O [Carnosine, reference compound] | – | – | 4.94 ± 0.3 | – | – | – | – | – | – |
| NC(Cc1cnc[nH]1)C(=O)NC(Cc1ccc(O)cc1)C(=O)O (stereo not drawn) [H-His-Tyr-OH] (H-His-Tyr-OH; configuration not given here) | 80.16 ± 7.57 | 15.41 ± 0.49 | 16.90 ± 0.54 | 500 | 10000 | 650 | 20000 | 2000 | dose-dependent protective effect |
| NC(Cc1ccc(O)cc1)C(=O)NC(Cc1cnc[nH]1)C(=O)O (stereo not drawn) [H-Tyr-His-OH] (H-Tyr-His-OH; configuration not given here) | 85.31 ± 6.29 | 20.02 ± 4.09 | 17.28 ± 0.89 | – | – | 600 | – | – | dose-dependent protective effect |
| Cc1c(C)c2c(c(C)c1O)CCC(C)(C(=O)O)O2 (stereo not drawn) [Trolox, reference compound] | – | – | 25 | – | – | – | – | – | – |
